The subject of test [1] is PC12-HS cells. In words: Evaluation method A: neurocyte growth acceleration activity (Alamar blue). The note with it: for Cell proliferation rate (%): negative control = 100%; for neurocyte growth acceleration activity (in words): 40, 200 and 1,000 nM, comment on Table 2. The test is classed as cell-based, rat. An excerpt:
(§1) As a model of the nerve cell, the NGF (nerve growth factor) highly sensitive strain of PC12 cell derived from the rat adrenal pheochromocytoma (hereinafter referred to as “PC12-HS cell”; JCRB cell bank, National Research and Development Institute of Health and Nutrition), which has been widely used as a suitable model for research on human neurodegenerative disease, was used. As the test compound, […] of trimethine cyanine dye compounds; NK-5 (Chemical formula 2), NK-36 (Chemical formula 3), NK-44 (Chemical formula 5) and dye compounds represented by Chemical formulae 12 to 18, and NK-6 (Chemical formula 7), which is a monomethine cyanine dye, were selected. In addition, two kinds of ethylene cross-linked dyes (Chemical formulae 19 and 20), 15 kinds of monomethine cyanine dyes (Chemical formulae 21 to 35), and seven kinds of trimethine cyanine dyes (Chemical formulae 36 to 42), which were expected to have a good neurocyte growth acceleration activity and/or neurite-outgrowth promoting activity in the screening disclosed in Patent literature 6, were also re-evaluated for comparison. The Chemical formulae 12 to 42 are shown below.
(§2) The cyanine dye compounds subjected to the test (purity 97% by mass or more, synthesized by Hayashibara Co., Ltd., Okayama, Japan) were individually dissolved in DMSO (product number “D8418”, commercialized by SIGMA Corporation) at a concentration of 5 mg/ml, and the solutions were then filtered through DMSO-resistant membrane (“Millex-LGS LLG025SS”, commercialized by Millipore Corporation) and stored at 25° C. in a dark condition. At the time of use, they were further diluted with Dulbecco's Medium (hereinafter, abbreviated as “D-MEM medium”, commercialized by Nissui Pharmaceutical Co., Ltd.) supplemented by 10% by volume of fetal bovine serum (FBS), and subjected to the test.
PC12-HS cells were subjected to tests after frozen stock cultured cells were thawed and cultured with a D-MEM medium supplemented with 10% by volume of FBS (Hereinafter, when the term “culture” is simply used, it means that the cells are statically cultured in an incubator controlled at 37° C. under 5% by volume of CO2 conditions). Cells used in the test were collected using 0.25% by weight of trypsin solution, then diluted with a D-MEM medium supplemented with 10% by volume of FBS (hereinafter referred to as “culture medium”), seeded into collagen-coated 96-well plates (commercialized by Falcon, Tokyo, Japan, “Microtest Plate, Cell Culture, Flat Bottom”) to obtain 5×10^3 cells/100 μl/well, and cultured for 24 hours (hereinafter referred to as “pre-culture”). Then, the above test samples were diluted with a culture medium, and 100 μl of diluted solution of the test compounds were added to each well so that the final concentration of the test compounds in the wells became 50 ng/ml, and the cells were cultured for another three days. On day 3, the cultures supernatant was removed from each well, 200 μl of culture medium containing 10% by volume of Alamar blue reagents (commercialized by Trek Diagnostic Systems Inc., Ohio, USA) were added to each well, and the cells were cultured for 6 hours. After culturing for 6 hours, the cells were measured for fluorescent intensity at a wavelength of 544-590 nm by “FlexStation 3”, a product name of a fluorescent plate reader (commercialized by Japan Molecular Devices Corporation, Tokyo, Japan). […] Measurements were performed for each test compound in triplicate, and the mean values were shown.
The method was based on Experiment 1-1, except the concentrations of the test compounds were set to three doses of 40 nM, 200 nM and 1,000 nM for evaluation method A (neurocyte growth accelerating effect), and two doses of 200 nM and 1,000 nM for evaluation method B (neurite outgrowth promoting effect). […]

The subject of test [2] is PC12-HS cells. In words: Evaluation method B: neurite-outgrowth promoting activity in the presence of NGF. In kind it is cell-based, rat. The note with it: for Neurite-outgrowth rate (%) / Action on PC12-HS neurite-outgrowth promotion (500 ng/ml): NGF 10 ng/ml; for Action on PC12-HS neurite-outgrowth promotion (500 ng/ml): 3 days, class of neurite-outgrowth rate; for neurite-outgrowth promoting activity (in words): 200 and 1,000 nM, comment on Table 2.
Description: as §1, §2
As in the case of evaluation of neurocyte growth accelerating activity (Evaluation method A), 50 μl/well of each test compound solution, prepared by diluting with the culture medium to give a final concentration of 500 ng/ml, and the culture medium containing 20 ng/ml of mouse NGF (mouse derived, final concentration 10 ng/ml, commercialized by Chemicon International, Inc., CA, USA) (50 μl/well) were added to the precultured PC12-HS cells in each well, and then cultured for three days. Culture medium was removed on day 3 of culture, and cells were fixed by adding 100 μl/well of 10% by volume of glutaraldehyde and standing for 20 minutes at room temperature. As a negative control, PC12-HS cells, cultured for three days with culture medium, were fixed with glutaraldehyde similarly as above. Fixed cells were observed under a microscope to assess the neurite-outgrowth. The neurite-outgrowth rate (%) was determined by observing the cells using a microscope by adjusting the magnitude to give about 100 cells in one visual field, counting the number of cells having neurites twice or more in length of the cell body (major axis), dividing by the total number of cells in the same visual field, and multiplying by 100. Measurements were carried out at three points for each test compound. […] In this experiment, the neurite-outgrowth rate was 5% or less when NGF was added (final concentration 10 ng/ml) without the addition of the test compound.
The method was based on Experiment 1-1, except the concentrations of the test compounds were set to three doses of 40 nM, 200 nM and 1,000 nM for evaluation method A (neurocyte growth accelerating effect), and two doses of 200 nM and 1,000 nM for evaluation method B (neurite outgrowth promoting effect). Measurements were performed in triplicate for each concentration of each test compound in both evaluation methods A and B. The result of the evaluation method A was expressed as a cell proliferation rate (%) by determined a relative percentage (%) when the value of the negative control to which the test compound was not added, was regarded as 100%. […]

Test [3] in a line: DPPH radical scavenging ability (absorbance method). In kind it is biochemical. The note with it: ethanol, room temperature, 2 hours, absorbance at 490 nm. An excerpt:
2,2-Diphenyl-1-picrylhydrazyl (hereinafter referred to as “DPPH”) is a radical with an unpaired electron and has the oxidizing ability of other substances. In addition, because it is stable and easy to handle, it is widely used as an artificial radical-like substance for measuring the antioxidant ability of antioxidants. When DPPH reacts with a substance having antioxidant ability, it loses its own oxidizing ability and its color changes from deep purple to […].
DPPH (commercialized by Tokyo Kasei Kogyo Co., Ltd., Tokyo, Japan) was dissolved in ethanol to prepare a 167 μM DPPH ethanol solution, and 90 μl of the solution was added to each well of the 96-well microplate. A 60 μl each of the test compound serially diluted with ethanol was added to the DPPH ethanol solution, and the mixture was reacted at room temperature for 2 hours, and then the absorbance at 490 nm was measured. […] From those value, the 50% inhibitory concentration of the DPPH radical (Hereinafter, it is referred to as “IC50”) was calculated.

Bounds are passed on as bounds.

In the case of `CCN1C(=CC(C)=Cc2sc3ccccc3[n+]2CCCS(=O)(=O)[O-])Sc2ccccc21` [NK-4781], the “Cell proliferation rate (%)” value in the test on PC12-HS cells [1] (1.000 nM) was 89.1%; in the test with PC12-HS cells [1] (40 nM), 110.0%; with PC12-HS cells [1] (200 nM), 106.6%. For the same molecule, the “neurocyte growth acceleration activity (in words)” value in the test with PC12-HS cells [1] was “almost no growth acceleration activity”. Moreover, the “Neurite-outgrowth rate (%)” value in the test with PC12-HS cells [2] (1.000 nM) is reported as 88.3%; in the test on PC12-HS cells [2] (200 nM) it was 31.2%. Besides, the “Action on PC12-HS neurite-outgrowth promotion (500 ng/ml)” value with PC12-HS cells [2] is given as “⊚ (45% or more was judged to be more potent than NK-4 (“double circle”))”. Besides, the “neurite-outgrowth promoting activity (in words)” value in the test with PC12-HS cells [2] is “stronger neurite-outgrowth promoting activity than NK-4”.

For the molecule `CC1=CO/C(=C\C=C\c2occ(C)[n+]2C)N1C.F[P-](F)(F)(F)(F)F` [NK-10089], the “Cell proliferation rate (%)” value in the test with PC12-HS cells [1] (1.000 nM) is listed as 91.6%; with PC12-HS cells [1] (40 nM) it was 110.6%; in the test with PC12-HS cells [1] (200 nM), 123.4%. Also, the “Action on PC12-HS growth acceleration (50 ng/ml)” value in the test on PC12-HS cells [1] (50 ng/ml, 3 days culture, class of cell proliferation rate vs negative control = 100%) is recorded as “◯ (the relative value of 130% to 169% was judged to be equivalent to NK-4 (“circle”))”. Besides, the “neurocyte growth acceleration activity (in words)” value with PC12-HS cells [1] was “slightly weaker activity than NK-6 and NK-36”. Moreover, the “Neurite-outgrowth rate (%)” value in the test with PC12-HS cells [2] (1.000 nM) was found to be 29.3%; in the test with PC12-HS cells [2] (200 nM) it was 0.0%.

As to `COC1C=CC=CC1=CC=CC1=[N+](C)c2ccc3ccccc3c2C1(C)C.Cc1ccc(S(=O)(=O)[O-])cc1` (stereo not drawn) [NK-10214], the figures for the “Cell proliferation rate (%)” value in the test on PC12-HS cells [1] (1.000 nM), with PC12-HS cells [1] (40 nM) and in the test with PC12-HS cells [1] (200 nM) were 103.3%, 109.3% and 123.1%, respectively. Moreover, in the test with PC12-HS cells [1], the “neurocyte growth acceleration activity (in words)” value is “slightly weaker activity than NK-6 and NK-36”. The “Neurite-outgrowth rate (%)” value is on record as 48.8% in the test on PC12-HS cells [2] (1.000 nM) and 23.6% in the test with PC12-HS cells [2] (200 nM). For the same molecule, the “Action on PC12-HS neurite-outgrowth promotion (500 ng/ml)” value in the test on PC12-HS cells [2] is on record as “⊚ (45% or more was judged to be more potent than NK-4 (“double circle”))”. Besides, in the test with PC12-HS cells [2], the “neurite-outgrowth promoting activity (in words)” value is “stronger neurite-outgrowth promoting activity than NK-4”.

Take `CCn1ccc(=O)c2ccccc21` [NKX-4076]: the IC50 in test [3] is ≥ 10 mM.
